# Test results published in patent publication US20040038424A1, “Formaldehyde-ammonium salt complexes for the stabilization of blood cells” (priority 2002, published 2004).
# Legend:
# [1] = system: cells; assay: Cellular stabilization (several experiments); assay type: cell-based
# [2] = system: platelet granule marker CD62p on platelets; assay: Percentage of CD62p positive platelets by flow cytometry (platelet activation state); assay type: cell-based, human; conditions: dibasic versus tribasic ammonium citrate in the reagent, FIGS. 11A and 11B
# Excerpt: When used to stabilize blood samples or fractions or other tissues containing platelets, the composition and methods of this invention preserve platelet activity in the state of activation substantially the same as that existing at the time of blood or platelet withdrawal from the blood or platelet donor. By “state of activation of the platelets” or “Activation Potential” as used herein is meant the percentage of platelets expressing the CD62p antigen, i.e., the percentage of platelets that bind CD62p fluorescently-labeled antibody as performed by flow cytometry, or CD62p positive platelets in the sample. The CD62p antigen represents a glycoprotein antigen that is unique to megakaryocyte, platelet, and endothelial cell secretory granules. […]
# Expression of CD62p is measured typically by flow cytometric analysis using dual or multi-parameter analyses, and particularly by staining the samples with labeled ligands that bind to CD62p on the platelets in the sample. The ligands are conventionally monoclonal antibodies to the antigen to be measured. […]
# The same protocol was conducted on activated blood samples. […] PAP was assessed using 2 μl of a 1/100 dilution (0.0324 mM) of stock PMA is added with 10 μl antibodies and 100 μl of diluent (PBS) and 2.5 μl of blood and incubated for 15 minutes (final concentration of 11.58 μM). […]
SMILES,effectiveness in cellular stabilization [1],stabilization of CD62p by ammonium salt type [2]
C1N2CN3CN1CN(C2)C3 [hexamethylenetetramine],not effective,
N.N.O=C(O)CC(O)(CC(=O)O)C(=O)O [dibasic ammonium citrate],,better stabilization
